{
  "source": "ChEMBL document CHEMBL1151324",
  "about": "“Cytotoxic geranyl stilbenes from Macaranga schweinfurthii” (J Nat Prod, 1998)",
  "assay_type_in_all_cases": "functional",
  "key": {"[1]": {"test_system": "Malme-3M", "experiment": "Cytotoxicity against human MALME-3M cells", "conditions": "read-out: pTGI (converted)"}, "[2]": {"test_system": "SK-MEL-28", "experiment": "Cytotoxicity against human SK-MEL-28 cells"}, "[3]": {"test_system": "UACC-62", "experiment": "Cytotoxicity against human UACC62 cells"}, "[4]": {"test_system": "IGROV-1", "experiment": "Cytotoxicity against human IGROV1 cells"}, "[5]": {"test_system": "OVCAR-3", "experiment": "Cytotoxicity against human OVCAR-3 cells"}, "[6]": {"test_system": "OVCAR-5", "experiment": "Cytotoxicity against human OVCAR5 cells"}, "[7]": {"test_system": "OVCAR-8", "experiment": "Cytotoxicity against human OVCAR8 cells"}, "[8]": {"test_system": "SK-OV-3", "experiment": "Cytotoxicity against human SKOV3 cells"}, "[9]": {"experiment": "Cytotoxicity against human 786-O cells"}, "[10]": {"test_system": "A498", "experiment": "Cytotoxicity against human A498 cells"}, "[11]": {"test_system": "CAKI-1", "experiment": "Cytotoxicity against human Caki1 cells"}, "[12]": {"test_system": "RXF 393", "experiment": "Cytotoxicity against human RXF393 cells"}, "[13]": {"test_system": "SN12C", "experiment": "Cytotoxicity against human SN12C cells"}, "[14]": {"test_system": "TK-10", "experiment": "Cytotoxicity against human TK10 cells"}, "[15]": {"test_system": "UO-31", "experiment": "Cytotoxicity against human UO31 cells"}, "[16]": {"test_system": "PC-3", "experiment": "Cytotoxicity against human PC3 cells"}, "[17]": {"test_system": "DU-145", "experiment": "Cytotoxicity against human DU145 cells"}, "[18]": {"test_system": "MCF7", "experiment": "Cytotoxicity against human doxorubicin-resistant MCF7 cells"}, "[19]": {"test_system": "MDA-MB-231", "experiment": "Cytotoxicity against human MDA-MB-231 cells"}, "[20]": {"experiment": "Cytotoxicity against human Hs 578T cells"}, "[21]": {"test_system": "MDA-MB-435", "experiment": "Cytotoxicity against human MDA-MB-435 cells"}, "[22]": {"test_system": "MDA-N", "experiment": "Cytotoxicity against human MDA-N cells"}, "[23]": {"test_system": "T47D", "experiment": "Cytotoxicity against human T47D cells"}, "[24]": {"conditions": "read-out: pLC50 (the source's name) (converted)"}},
  "data": [
    {"smiles": "CC(C)=CCC/C(C)=C/Cc1c(O)cc(/C=C/c2cc(O)c3c(c2)C[C@@H]2C(C)(C)[C@H](O)[C@H](O)C[C@@]2(C)O3)cc1O", "note": "[SCHWEINFURTHIN A]", "values": [
      {"measurement": "TGI", "setting": "[1]", "result": 20, "unit": "µM"},
      {"measurement": "GI50", "setting": "[2]", "result": 4.57, "unit": "µM"},
      {"measurement": "LC50", "setting": "[2]", "result": 60.3, "unit": "µM"},
      {"measurement": "TGI", "setting": "[2]; read-out: pTGI (converted)", "result": 24, "unit": "µM"},
      {"measurement": "GI50", "setting": "[3]", "result": 0.11, "unit": "µM"},
      {"measurement": "LC50", "setting": "[3]", "result": 6.31, "unit": "µM"},
      {"measurement": "TGI", "setting": "[3]; read-out: pTGI (converted)", "result": 1.82, "unit": "µM"},
      {"measurement": "GI50", "setting": "[4]", "result": 1.29, "unit": "µM"},
      {"measurement": "LC50", "setting": "[4]", "result": 34.7, "unit": "µM"},
      {"measurement": "TGI", "setting": "[4]; read-out: pTGI (converted)", "result": 11, "unit": "µM"},
      {"measurement": "GI50", "setting": "[5]", "result": 3.09, "unit": "µM"},
      {"measurement": "LC50", "setting": "[5]", "result": 21.9, "unit": "µM"},
      {"measurement": "TGI", "setting": "[5]; read-out: pTGI (converted)", "result": 7.94, "unit": "µM"},
      {"measurement": "GI50", "setting": "[6]", "result": 6.46, "unit": "µM"},
      {"measurement": "LC50 (concentration killing 50% of cells)", "setting": "[6]", "result": 45.7, "unit": "µM"},
      {"measurement": "TGI", "setting": "[6]; read-out: pTGI (converted)", "result": 20, "unit": "µM"},
      {"measurement": "GI50", "setting": "[7]", "result": 5.13, "unit": "µM"},
      {"measurement": "LC50", "setting": "[7]", "result": 57.5, "unit": "µM"},
      {"measurement": "TGI", "setting": "[7]; read-out: pTGI (converted)", "result": 20, "unit": "µM"},
      {"measurement": "GI50", "setting": "[8]", "result": 2.69, "unit": "µM"},
      {"measurement": "LC50", "setting": "[8]", "result": 39.8, "unit": "µM"},
      {"measurement": "TGI", "setting": "[8]; read-out: pTGI (converted)", "result": 15.8, "unit": "µM"},
      {"measurement": "GI50", "setting": "[9]; 786-0", "result": 0.01, "unit": "µM"},
      {"measurement": "LC50", "setting": "[9]; 786-0", "result": 19.1, "unit": "µM"},
      {"measurement": "TGI", "setting": "[9]; 786-0, read-out: pTGI (converted)", "result": 3.02, "unit": "µM"},
      {"measurement": "GI50", "setting": "[10]", "result": 4.17, "unit": "µM"},
      {"measurement": "LC50", "setting": "[10]", "result": 61.7, "unit": "µM"},
      {"measurement": "TGI", "setting": "[10]; read-out: pTGI (converted)", "result": 22.9, "unit": "µM"},
      {"measurement": "GI50", "setting": "[11]", "result": 0.129, "unit": "µM"},
      {"measurement": "LC50", "setting": "[11]", "result": 56.2, "unit": "µM"},
      {"measurement": "TGI", "setting": "[11]; read-out: pTGI (converted)", "result": 19.1, "unit": "µM"},
      {"measurement": "GI50", "setting": "[12]", "result": 0.01, "unit": "µM"},
      {"measurement": "LC50", "setting": "[12]", "result": 55, "unit": "µM"},
      {"measurement": "TGI", "setting": "[12]; read-out: pTGI (converted)", "result": 2.09, "unit": "µM"},
      {"measurement": "GI50", "setting": "[13]", "result": 6.92, "unit": "µM"},
      {"measurement": "LC50", "setting": "[13]", "result": 61.7, "unit": "µM"},
      {"measurement": "TGI", "setting": "[13]; read-out: pTGI (converted)", "result": 25.1, "unit": "µM"},
      {"measurement": "GI50", "setting": "[14]", "result": 2.57, "unit": "µM"},
      {"measurement": "LC50", "setting": "[14]", "result": 41.7, "unit": "µM"},
      {"measurement": "TGI", "setting": "[14]; read-out: pTGI (converted)", "result": 17, "unit": "µM"},
      {"measurement": "GI50", "setting": "[15]", "result": 0.01, "unit": "µM"},
      {"measurement": "LC50", "setting": "[15]", "result": 3.63, "unit": "µM"},
      {"measurement": "TGI", "setting": "[15]; read-out: pTGI (converted)", "result": 0.209, "unit": "µM"},
      {"measurement": "GI50", "setting": "[16]", "result": 0.17, "unit": "µM"},
      {"measurement": "CC50", "setting": "[16]; [24]", "result": 36.3, "unit": "µM"},
      {"measurement": "TGI", "setting": "[16]; read-out: pTGI (converted)", "result": 12.9, "unit": "µM"},
      {"measurement": "GI50", "setting": "[17]", "result": 1.2, "unit": "µM"},
      {"measurement": "CC50", "setting": "[17]; [24]", "result": 53.7, "unit": "µM"},
      {"measurement": "TGI", "setting": "[17]; read-out: pTGI (converted)", "result": 15.1, "unit": "µM"},
      {"measurement": "GI50", "setting": "[18]", "result": 3.8, "unit": "µM"},
      {"measurement": "CC50", "setting": "[18]; [24]", "result": 41.7, "unit": "µM"},
      {"measurement": "TGI", "setting": "[18]; read-out: pTGI (converted)", "result": 12.9, "unit": "µM"},
      {"measurement": "GI50", "setting": "[19]", "result": 4.17, "unit": "µM"},
      {"measurement": "CC50", "setting": "[19]; [24]", "result": 70.8, "unit": "µM"},
      {"measurement": "TGI", "setting": "[19]; read-out: pTGI (converted)", "result": 25.1, "unit": "µM"},
      {"measurement": "GI50", "setting": "[20]", "result": 0.01, "unit": "µM"},
      {"measurement": "CC50", "setting": "[20]; [24]", "result": 87.1, "unit": "µM"},
      {"measurement": "TGI", "setting": "[20]; read-out: pTGI (converted)", "result": 0.759, "unit": "µM"},
      {"measurement": "GI50", "setting": "[21]", "result": 3.8, "unit": "µM"},
      {"measurement": "CC50", "setting": "[21]; [24]", "result": 74.1, "unit": "µM"},
      {"measurement": "TGI", "setting": "[21]; read-out: pTGI (converted)", "result": 33.1, "unit": "µM"},
      {"measurement": "GI50", "setting": "[22]", "result": 2.82, "unit": "µM"},
      {"measurement": "CC50", "setting": "[22]; [24]", "result": 61.7, "unit": "µM"},
      {"measurement": "TGI", "setting": "[22]; read-out: pTGI (converted)", "result": 25.7, "unit": "µM"},
      {"measurement": "GI50", "setting": "[23]", "result": 3.24, "unit": "µM"},
      {"measurement": "CC50", "setting": "[23]; [24]", "result": 97.7, "unit": "µM"},
      {"measurement": "TGI", "setting": "[23]; read-out: pTGI (converted)", "result": 21.9, "unit": "µM"}
    ]}
  ]
}
